The test system of assay [1] is MHV-EFLM infection of LR7 cells. Description: Virus-cell entry inhibition assay with luciferase-expressing MHV-EFLM. Conditions: peptide concentration 50 μM. It counts as cell-based, mouse hepatitis virus (MHV) strain A59. The procedure:
FIG. 11: Inhibition of MHV infection by the HR2 peptide. LR7 cells were inoculated with the virus MHV-EFLM in the presence of different concentrations of HR2 peptide or, as a control, a peptide corresponding to amino acids 1003-1048 of the viral S protein. After one hour of inoculation, cells were washed and incubated further in the absence of peptide. To evaluate the success of the infection, cells were analyzed at 4 hours post-infection for luciferase expression. In the figure luciferase activity is plotted against the different peptide concentrations used.
(§1) The potency of the HR2 peptide in inhibiting viral infection was determined using the recombinant MHV-EFLM expressing the firefly luciferase. Confluent monolayers of LR7 cells in 96-well plates were inoculated at 37° C. in DMEM at a multiplicity of infection of 5 for 1 hour in the presence of varying concentrations of peptide ranging from 0.4-50 μM. After 1 hour, cells were washed with DMEM and medium was replaced by peptide-free DMEM. At 5 hours post-infection cells were lysed for 15 minutes at RT in 50 μl Lysis buffer, according to the manufacturer's protocol (Luciferase Assay System, Promega). Upon mixing of 10 μl cell lysate with 40 μl substrate, luciferase activity was measured immediately using a Wallace Betaluminometer. […]

Assay [2] relates to MHV-A59 spike mediated cell-cell fusion in LR7 cells. Description: Cell-cell fusion inhibition plaque assay. The assay is classed as cell-based, mouse hepatitis virus (MHV) strain A59. As for the experimental part:
FIG. 12: Inhibition of cell-cell fusion by HR2 peptide. After inoculation of parallel cultures of LR7, cells with MHV-A59 cells were overlaid with agar medium containing different concentrations of HR2 peptide and plaques were counted the following day.
as §1

Where no end group is shown, it is not given here.

Turning to “GPIEGRDLSLDFEKLNVTLLDLTYEMNRIQDAIKKLNESYINLKE [HR2 peptide]”, the “inhibition of viral infection (entry)” value in assay [1] is listed as “inhibited virtually completely”. The “formation of plaques (cell-cell fusion)” value is reported as “only tiny plaques” in assay [2] (0.08 μM HR2 peptide in agar overlay) and “completely abolished” in assay [2] (HR2 peptide in agar overlay at concentrations of up to 0.4 μM).

(Values after patent publication US7556957B2, “Coronavirus-like particles comprising functionally deleted genomes” (Stichting voor de Technische Wetenschappen, priority 2001, dated 2009).)
